Structures can show the parent of a compound that is named as a salt. Where two headings read alike, the source gives them in different places.
How the values were obtained:
[1] = molecular target: neuronal nicotinic acetylcholine receptors; experiment: [3H]-cytisine ligand-receptor binding assay (crude synaptic membranes from whole rat brain); conditions: for binding to the nicotinic acetylcholine receptor (in words): preferred compounds
Protocol: For the purpose of identifying compounds as nicotinic acetylcholinergic agents which are capable of interacting with neuronal nicotinic acetylcholine receptors in the brain, a ligand-receptor binding assay was carried out as the initial screen. Compounds of the present invention were effective at interacting with neuronal nicotinic acetylcholine receptors as assayed for their ability to displace radioligand from neuronal nicotinic acetylcholine receptors labeled with [^3 H]-cytisine ([^3 H]-CYT).
A. Protocol For Determination of Nicotinic Acetylcholine Receptor Binding Potencies of Ligands
Binding of [^3 H]-CYT to nicotinic acetylcholine receptors was accomplished using crude synaptic membrane preparations from whole rat brain (Pabreza et al., Molecular Pharmacol., 1990, 39:9). Washed membranes were stored at -80° C. prior to use. Frozen aliquots were slowly thawed and resuspended in 20 volumes of buffer (containing: 120 mM NaCl, 5 mM KCl, 2 mM MgCl2, 2 mM CaCl2 and 50 mM Tris-Cl, pH 7.4 @4° C.). After centrifuging at 20,000×g for 15 minutes, the pellets were resuspended in 30 volumes of buffer. Homogenate (containing 125-150 μg protein) was added to triplicate tubes containing concentrations of test compound and [^3 H]-CYT (1.25 nM) in a final volume of 500 μL. Samples were incubated for 60 minutes at 4° C., then rapidly filtered through Whatman GF/B filters presoaked in 0.5% polyethylimine using 3×4 mL of ice-cold buffer. The filters were counted in 4 mL of Ecolume® (ICN). Nonspecific binding was determined in the presence of 10 μM (-)-nicotine and values were expressed as a percentage of total binding.

[2] = system: neuronal nicotinic acetylcholine receptors in IMR-32 cells; experiment: 86Rb+ efflux assay in IMR-32 neuroblastoma cells; format: cell-based, human; conditions: Table 1; for IMR-32 % max: maximal response, percent relative to 100 μM (S)-nicotine; for IMR-32 % Inhibition @ (30 μM) / IMR-32 % Inhibition @ 10 μM: inhibition of efflux elicited by 100 μM (S)-nicotine
Protocol: B. Protocols for the Determination of Functional Effects of Nicotinic Acetylcholine Receptor Ligands on Synaptic Transmission
Experimental cells were seeded at a density of 500,000 cells/mL into a 24-well tissue culture dish. Plated cells were allowed to proliferate for at least 48 hours before loading with 2 μCi/mL of ^86 Rb^+ (35 Ci/mmol) overnigh at 37° C.

[3] = Table 2, [3H]-cytisine binding, read-out: Binding
[4] = Table 1, [3H]-cytisine 1.25 nM, 4° C., 60 min, Ki by Cheng and Prusoff, read-out: [^3 H]-Cyt Binding

“5-chloro-2-(1-methyl-2-(S)-pyrrolidinyl)-6-(3-pyridyl)furo[3,2-b]pyridine hydrochloride [Example 59]” showed a Ki [1, 3] of 672 nM.

Compound `Clc1ccc2oc([C@H]3C[C@@H]4CC[C@H]3N4)cc2n1` (relative stereo) [Example 135, (±)-2-(7-aza-2-exo-bicyclo[2.2.1]heptyl)-5-chlorofuro[3,2-b]pyridine hydrochloride] has a Ki [1, 3] of 3.2 nM.

`Fc1ccc2oc([C@H]3C[C@@H]4CC[C@H]3N4)cc2n1` (relative stereo) [Example 136, (±)-2-(7-aza-2-exo-bicyclo[2.2.1]heptyl)-5-fluorofuro[3,2-b]pyridine hydrochloride] was tested, and the Ki [1, 3] was 2.4 nM.

In the case of `Cc1ccc2oc([C@@H]3CCCN3)cc2n1` [Example 5, 5-methyl-2-(2-(S)-pyrrolidinyl)furo[3,2-b]pyridine dihydrochloride], the Ki [1, 4] is reported as 355 nM.

`Clc1cnc2cc([C@@H]3CCCN3)oc2c1` [Example 7, 6-chloro-2-(2-(S)-pyrrolidinyl)-furo[3,2-b]pyridine dihydrochloride] was tested, and the Ki [1, 4] was 878 nM.

`Cl.Cl.c1cc2cc([C@@H]3CCCN3)oc2cn1` [Example 9, 2-(2-(S)-pyrrolidinyl)furo[2,3-c]pyridine dihydrochloride] was tested, and the Ki [1, 4] was 250 nM and the IMR-32 % max [2] was 83%.

In the case of `CN1CCC[C@H]1c1cc2ccncc2o1` [Example 10, 2-(1-methyl-2-(S)-pyrrolidinyl)furo[2,3-c]pyridine dihydrochloride], the Ki [1, 4] is reported as 207 nM.

With `Clc1ccc2oc([C@@H]3CCCN3)cc2n1` [Example 11, 5-chloro-2-(2-(S)-pyrrolidinyl)-furo[3,2-b]pyridine hydrochloride] the Ki [1, 4] was 58 nM.

With `Clc1cnc2oc([C@@H]3CCCN3)cc2c1` [Example 13, 5-chloro-2-(2-(S)-pyrrolidinyl)-furo[2,3-b]pyridine hydrochloride] the Ki [1, 4] was 4440 nM.

`CN1CCC[C@H]1c1cc2cc(Cl)cnc2o1` [Example 14, 5-chloro-2-(1-methyl-2-(S)-pyrrolidinyl)-furo[2,3-b]pyridinedihydrochloride] gave a Ki [1, 4] of 181 nM.

`c1cc2cc(C34CCCN3CCC4)oc2cn1` [Example 17, 2-(Hexahydro-1H-7a-pyrrolizinyl)furo[2,3-c]pyridine dihydrochloride] was tested, and the Ki [1, 4] was 88 nM.

In the case of `c1cnc2cc([C@H]3CC[C@H]4CCCN43)oc2c1` [Example 18, endo-2-(Hexahydro-1H-3-(R)-pyrrolizinyl)furo[3,2-b]pyridine dihydrochloride], the Ki [1, 4] is reported as 38 nM and the “IMR-32 % Inhibition @ (30 μM)” value [2] is reported as 55%.

Compound `c1cnc2cc([C@@H]3CC[C@H]4CCCN43)oc2c1` [Example 19, exo-2-(Hexahydro-1H-3-(S)-pyrrolizinyl)furo[3,2-b]pyridine dihydrochloride] has a Ki [1, 4] of 3950 nM.

`c1cnc2cc([C@H]3CC[C@@H]4CCCN43)oc2c1` [Example 20, exo-2-(Hexahydro-1H-3-(R)-pyrrolizinyl)furo[3,2-b]pyridine dihydrochloride] was tested, and the Ki [1, 4] was 397 nM.

In the case of `c1cnc2cc([C@@H]3CC[C@@H]4CCCN43)oc2c1` [Example 21, endo-2-(Hexahydro-1H-3-(S)-pyrrolizinyl)furo[3,2-b]pyridine dihydrochloride], the Ki [1, 4] is reported as 3300 nM, the “IMR-32 % Inhibition @ (30 μM)” value [2] is reported as 50% and the IMR-32 % max [2] is reported as 0%.

In the case of `c1cnc2cc(CN3CCCC3)oc2c1` [Example 22, 1-Pyrrolidinylmethyl-(2-furo[3,2-b]pyridine)], the Ki [1, 4] is reported as 113 nM.

`Clc1ccc2oc(C34CCCN3CCC4)cc2n1` [Example 23, 5-Chloro-2-(hexahydro-1H-7a-pyrrolizinyl)furo[3,2-b]pyridinehydrochloride] was tested, and the Ki [1, 4] was 0.62 nM and the “binding to the nicotinic acetylcholine receptor (in words)” value [1] was “most potent binders”.

`Clc1cc2oc([C@@H]3CCCN3)cc2nc1Cl` [Example 25, 5,6-Dichloro-2-(2-(S)-pyrrolidinyl)furo [3,2-b]pyridine hydrochloride] was tested, and the Ki [1, 4] was 103 nM.

Work on `Cc1ccc2sc(C34CCCN3CCC4)cc2n1` [Example 27, dihydrochloride] yielded a Ki [1, 4] of 27 nM.

With `Cc1ccc2oc([C@H]3CCCN3C)cc2n1` [Example 30, 5-methyl-2-(1-methyl-2-(R)-pyrrolidinyl)-furo[3,2-b]pyridinedihydrochloride] the Ki [1, 4] was 101 nM.

`CN1CCC[C@@H]1c1cc2nc(Cl)ccc2o1` [Example 32, 5-chloro-2-(1-methyl-2-(R)-pyrrolidinyl)-furo[3,2-b]pyridinehydrochloride] gave a Ki [1, 4] of 54 nM.

`Cl.Cl.c1cc2cc([C@H]3CCCN3)oc2cn1` [Example 34, 2-(2-(R)-pyrrolidinyl)furo[2,3-c]pyridine dihydrochloride] was tested, and the Ki [1, 4] was 1710 nM and the “IMR-32 % Inhibition @ 10 μM” value [2] was 2.8%.

In the case of `c1cnc2oc([C@@H]3CCCN3)cc2c1` [Example 36, 2-(2-(S)-pyrrolidinyl)furo[2,3-b]pyridine hydrochloride], the Ki [1, 4] is reported as 611 nM.

Work on `CN1CCC[C@H]1c1cc2cnccc2o1` [Example 37, 2-(1-methyl-2-(S)-pyrrolidinyl)furo[3,2-c]pyridine dihydrochloride] yielded a Ki [1, 4] of 1760 nM.

With `CN1CCC[C@@H]1c1cc2nc(Cl)c(Cl)cc2o1` [Example 40, 5,6-Dichloro-2-(1-methyl-2-(R)-pyrrolidinyl)furo[3,2-b]pyridine hydrochloride] the Ki [1, 4] was 32 nM.

`c1cnc2cc([C@H]3N[C@@H]4CC[C@H]3C4)oc2c1` [Example 41, 2-((1R,4S)-2-aza-3-(S)-bicyclo[2.2.1]heptyl)-furo[3,2-b]pyridine dihydrochloride] was tested, and the Ki [1, 4] was 81 nM.

With `Clc1ccc2oc([C@H]3N[C@@H]4CC[C@H]3C4)cc2n1` [Example 43, 2-((1R,4S)-2-aza-3-(S)-bicyclo[2.2.1]heptyl)-5-chloro-furo[3,2-b]pyridine dihydrochloride] the Ki [1, 4] was 453 nM.

Compound `CN1[C@@H]2CC[C@@H](C2)[C@H]1c1cc2nc(Cl)ccc2o1` [Example 44, 2-((1R,4t)-2-aza-3-(S)-bicyclo[2.2.1]heptyl)-5-chloro-2-methylfuro[3,2-b]pyridine dihydrochloride] has a Ki [1, 4] of 5 nM.

For `Clc1cc2oc([C@H]3N[C@@H]4CC[C@H]3C4)cc2nc1Cl` [Example 45, 2-((1R,4S)-2-aza-3-(S)-bicyclo[2.2.1]heptyl)-5,6-dichlorofuro[3,2-b]pyridine dihydrochloride], the Ki [1, 4] was 205 nM.

Compound `Brc1cnc2cc([C@@H]3CCCN3)oc2c1` [Example 46, 6-bromo-2-(2-(S)-pyrrolidinyl)furo[3,2-b]pyridine dihydrochloride] has a Ki [1, 4] of 468 nM.

For `CN1CCC[C@H]1c1cc2ncc(Br)cc2o1` [Example 47, 6-bromo-2-(1-methyl-2-(S)-pyrrolidinyl)furo[3,2-b]pyridine dihydrochloride], the Ki [1, 4] was 38 nM.

With `Cl.Clc1nc2cc([C@H]3CCCN3)oc2cc1Br` [Example 49, 6-bromo-5-chloro-2-(2-(R)-pyrrolidinyl)furo[3,2-b]pyridine hydrochloride] the Ki [1, 4] was 2.6 nM, the “IMR-32 % Inhibition @ 10 μM” value [2] was 10% and the IMR-32 % max [2] was 1%.

`CN1CCC[C@@H]1c1cc2nc(Cl)c(Br)cc2o1` [Example 50, 6-bromo-5-chloro-2-(-1-methyl-2(R)-pyrrolidinyl)furo[3,2-b]pyridine hydrochloride] was tested, and the Ki [1, 4] was 46 nM.

Work on `CN1CCC[C@H]1c1cc2nccc(Cl)c2o1` [Example 51, 7-chloro-2-(1-methyl-2-(S)-pyrrolidinyl)furo[3,2-b]pyridine hydrochloride] yielded a Ki [1, 4] of 443 nM.

`c1ccc(-c2cnc3cc([C@@H]4CCCN4)oc3c2)cc1` [Example 53, 2-((S)-pyrrolidinyl)-6-phenylfuro[3,2-b]pyridine dihydrochloride] gave a Ki [1, 3] of 335 nM.

Compound `CN1CCC[C@H]1c1cc2ncc(-c3ccccc3)cc2o1` [Example 54, 2-(1-methyl-2-(S)-pyrrrolidinyl)-6-phenylfuro[3,2-b]pyridinedihydrochloride] has a Ki [1, 3] of 104 nM.

In the case of `CN1CCC[C@@H]1c1cc2nc(Cl)c(-c3ccccc3)cc2o1` [Example 56, 5-chloro-2-(1-methyl-2-(R)-pyrrolidinyl)-6-phenyl furo[3,2-b]pyridine hydrochloride], the Ki [1, 3] is reported as 12.9 nM.

In the case of `Clc1nc2cc([C@H]3CCCN3)oc2cc1C=Cc1ccncc1` [Example 58, 5-chloro-2-(2-(R)-pyrrolidinyl)-6-(2-(4-pyridylethenyl)furo[3,2-b]pyridine hydrochloride], the Ki [1, 3] is reported as 0.31 nM and the “binding to the nicotinic acetylcholine receptor (in words)” value [1] is reported as “most potent binders”.

`CN1CCC[C@H]1c1cc2cccnc2o1` [Example 134, 2-(1-methyl-2-(S)-pyrrolidinyl)furo[2,3-b]pyidine hydrochloride] was tested, and the Ki [1, 3] was 6.9 nM.

Source: US6001849A, “Furopyridine, thienopyridine pyrrolopyridine useful in controlling chemical synaptic transmission” (Abbott Laboratories, priority 1997, dated 1999)
